Experimental data as given in PubChem BioAssay (NCI).
Where “and” joins values, the source holds several entries; their conditions need not be identical. Identical values can stand only once.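 Step 1: Grow cells in 96-well plates. Step 2: Expose to compound for 48 hours at 5 concentrations. Step 3: Interpolate endpoints linearly; if unreached, use highest concentration. Abbreviation: GI50, concentration required for 50% inhibition of growth. TGI: concentration producing complete growth inhibition.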 *1 amine or outer side, *2 acyl side, *3 side chain or, on linkers, in order; H or OH if unused. Where a SMILES comes first, the peptide text is derived from it. CO = O=C([*:1])[*:2]

Legend:
Test in all cases: NCI-60 cell line screen, 48 h
K-562 leukemia = test system: K-562 leukemia
UO-31 renal = test system: UO-31 renal
SN12C renal = test system: SN12C renal
EKVX NSCLC = test system: EKVX NSCLC
T-47D breast = test system: T-47D breast
COLO 205 colon = test system: COLO 205 colon
HCC-2998 colon = test system: HCC-2998 colon
OVCAR-8 ovarian = test system: OVCAR-8 ovarian
HCT-15 colon = test system: HCT-15 colon
IGROV1 ovarian = test system: IGROV1 ovarian

Row | Compound | GI50 (K-562 leukemia) | TGI (K-562 leukemia) | GI50 (UO-31 renal) | TGI (UO-31 renal) | GI50 (SN12C renal) | TGI (SN12C renal) | GI50 (EKVX NSCLC) | TGI (EKVX NSCLC) | GI50 (T-47D breast) | TGI (T-47D breast) | GI50 (COLO 205 colon) | TGI (COLO 205 colon) | GI50 (HCC-2998 colon) | TGI (HCC-2998 colon) | GI50 (OVCAR-8 ovarian) | TGI (OVCAR-8 ovarian) | GI50 (HCT-15 colon) | TGI (HCT-15 colon) | GI50 (IGROV1 ovarian) | TGI (IGROV1 ovarian)
1 | CC(C)C(NC(=O)C(CCCN=C(N)N)NC(=O)NC(Cc1ccccc1)C(=O)O)C(=O)NC(C=O)CCCN=C(N)N (stereo not drawn) ({Phe-CO}-Arg-Val-Arg-aldehyde; configuration not given here) | > 5 µM | > 5 µM | > 5 µM | > 5 µM | > 5 µM | > 5 µM | > 5 µM | > 5 µM | > 5 µM | > 5 µM | > 5 µM | > 5 µM | 0.0202 µM | > 5 µM | > 5 µM | > 5 µM | > 5 µM | > 5 µM | > 5 µM | > 5 µM
2 | CCC[CH2][Sn]([CH2]CCC)([O]C(=O)c1cccc(F)c1F)[O][Sn]([CH2]CCC)([CH2]CCC)[O]C(=O)c1cccc(F)c1F | 0.0371 µM | > 100 µM | 0.506 µM | 1.72 µM | 0.293 µM | 1.15 µM | 0.675 µM | 2.04 µM | 0.0189 µM | 0.186 µM | 0.288 µM | 0.969 µM | 0.617 µM | 1.92 µM | 0.285 µM | 1.16 µM | 0.243 µM | 0.797 µM | 0.781 µM | 2.15 µM
3 | O=C1NC(=O)[C@H]2C3C=CC([C@@H]12)[C@@H]1C(=O)NC(=O)[C@H]31 |  | > 100 µM |  | > 100 µM |  | > 100 µM |  | > 100 µM |  | > 100 µM |  | > 100 µM |  | > 100 µM |  | > 100 µM |  | > 100 µM |  | > 100 µM
4 | CC1=Cc2cc3[n-]c(cc4nc(cc5[n-]c(cc1n2)c(C)c5CCC(=O)O)C(CCC(=O)O)=C4C)cc3C.[Cu+2] | > 1 µM and 13.6 µM | > 60.6 µM | > 1 µM and 38.3 µM | > 92.7 µM | > 1 µM and 57.7 µM | > 100 µM | > 66.4 µM | > 100 µM | 47.6 µM | > 100 µM | > 1 µM and 40.7 µM | > 100 µM | > 100 µM | > 100 µM | > 1 µM and 19.6 µM | > 1 µM and 54.7 µM | > 1 µM and 52.7 µM | > 86.7 µM | > 1 µM and 12.5 µM | > 1 µM and 35.9 µM
5 | CCN(CC)CCCN1C(=O)c2c(c(C)c3c(oc4cc(O)ccc43)c2C)C1=O | 0.188 µM | 0.464 µM | 1.66 µM | 3.09 µM | 1.81 µM | 3.41 µM | 1.51 µM | 3.16 µM | 1.85 µM | 3.8 µM | 1.56 µM | 3.13 µM | 1.78 µM | 3.27 µM | 1.78 µM | 3.61 µM | 1.77 µM | 3.39 µM | 1.74 µM | 3.4 µM
6 | CC1(C)CC2=NOS3=C2C(=NO3)C1c1ccccn1 (stereo unspecified) |  | 62.8 µM |  | > 100 µM |  | > 100 µM |  | > 100 µM |  | > 100 µM |  | 80.5 µM |  | > 100 µM |  | > 100 µM |  | > 100 µM |  | 84.5 µM
7 | COc1ccc(C(=O)c2ccc(OC)cc2OC)cc1 | 0.935 µM | > 100 µM | 2.7 µM | 39.6 µM | 5.58 µM | > 100 µM | 7.17 µM | > 100 µM | 3.09 µM | > 100 µM | 1.65 µM | 3.51 µM | 6.54 µM | 41.3 µM | 4.55 µM | > 100 µM | 3.66 µM | > 100 µM | 2.61 µM | 40.9 µM
8 | COc1cc2c3c(n(CCCn4ccnc4)c(=O)c2cc1OC)-c1ccccc1C3=O | < 0.0155 µM |  | < 0.0141 µM | 0.0551 µM | < 0.0467 µM | 5.4 µM | 0.833 µM | > 100 µM | 0.0357 µM | 0.509 µM | 0.0979 µM |  | 0.0598 µM | 0.504 µM | 0.0584 µM | 4.84 µM | 0.159 µM | 2.37 µM | < 0.01 µM | 0.35 µM
9 | O=C1CN2CCC1C/C2=C\c1ccnc2c(Cl)cccc12 (stereo unspecified) | 32.2 µM | > 100 µM | 17.7 µM | > 100 µM | > 100 µM | > 100 µM | 33 µM | > 100 µM | 18.8 µM | > 100 µM | > 100 µM | > 100 µM | > 100 µM | > 100 µM | 61.6 µM | > 100 µM | 85.7 µM | > 100 µM | 34 µM | > 100 µM
10 | O=[N+]([O-])c1ccccc1/C=C/C=C1c2ccccc2-c2ccccc21 | > 100 µM | > 100 µM | > 100 µM | > 100 µM | > 100 µM | > 100 µM | > 100 µM | > 100 µM | > 100 µM | > 100 µM | > 100 µM | > 100 µM | > 100 µM | > 100 µM | > 100 µM | > 100 µM | > 100 µM | > 100 µM | > 100 µM | > 100 µM
11 | Cc1c(N(C(=O)c2cc(-c3cc(Cl)ccc3C(=O)N3Cc4ccccc4C[C@H]3CN3CCOCC3)n(C)c2C)c2ccc(O)cc2)cc(C#N)n1C | 10.8 µM | > 100 µM | 15.6 µM | > 100 µM | 19.5 µM | > 100 µM | 48.4 µM | > 100 µM | 7.09 µM | > 100 µM | 17.1 µM | 35.2 µM | 15.1 µM | 44.9 µM | 55.8 µM | > 100 µM | 16.6 µM | > 100 µM | 23.8 µM | > 100 µM
12 | Cc1ccc(-c2nc3nc(-c4ccc(Cl)cc4)nc(N4CCCNCC4)c3o2)cc1 |  |  | 1.3 µM | 2.62 µM | 1.66 µM | 3.15 µM | 1.75 µM | 3.27 µM | 1.94 µM | 4.14 µM | 2.08 µM | 4.26 µM | 1.89 µM | 3.54 µM | 2.15 µM | 4.77 µM | 1.57 µM | 3.08 µM | 1.65 µM | 3.15 µM
